Paper PMC8949600, “In Vitro & In Vivo Studies on Identifying and Designing Temporin-1CEh from the Skin Secretion of Rana chensinensis as the Optimised Antibacterial Prototype Drug” (Pharmaceutics, 2022)
Converted amounts (≈) assume the structure as drawn. Where two headings read alike, the source gives them in different places. Bridge positions count the residues as written; N and C are the ends. Peptide text beside a SMILES is read from it. I, II: the chains in the order shown.

Tests used:
[1] = test system: S. aureus (ATCC CRM 6538); type: cell-based
Procedure: (§1) A measure of 5 × 10^5 CFU/mL of bacterial suspension including 2-fold dilution peptides (ranging from 1 µM to 512 µM) was incubated in 96-well plates for 16–20 h at 37 °C. For the positive and negative control, 200 mg/L of final concentration of norfloxacin and 1% DMSO were applied, respectively. […] Subsequently, 10 µL of the solution in each clear well was dropped on a Mueller–Hinton agar (MHA) plate and incubated at 37 °C for 16–20 h. The lowest concentration without colony growth was considered as the MBCs.
(§2) Mueller–Hinton broth (MHB) at pH 6.0 and 8.0 as well as MHB containing 10% of Fetal Bovine Serum (FBS), 150 mM of NaCl, 1 mM of MgCl2 and 4 µM of FeCl3, respectively, were prepared. In particular, the pathogens were diluted by the preprepared mediums to a final concentration of 5 × 10^5 CFU/mL after growing to the logarithmic phase, and other operations followed the MIC assay.

[2] = test system: K. pneumoniae (ATCC 43816); type: cell-based
Procedure: as §1, §2

MRSA (NCTC 12493) = type: cell-based
Procedure: as §1, §2

E. coli (ATCC 8739) [3] = type: cell-based
Procedure: as §1, §2

E. faecalis (NCTC 12697) = type: cell-based
Procedure: as §1, §2

[4] = test system: P. aeruginosa (ATCC 27853); type: cell-based
Procedure: as §1, §2

S. aureus = test: Galleria mellonella larvae infection model, S. aureus; type: in vivo; conditions: at a concentration of 20 mg/kg; G. mellonella larvae
Procedure: (§3) In this assay, the larvae of the wax moth (Galleria mellonella) were used as the infection model. The larvae (Livefood UK Ltd., Rooks Bridge, UK) were selected between 225 and 275 mg (9 larvae per group in a Petri dish). For the positive and negative controls, 50 mg/kg of vancomycin (25 mg/kg of ampicillin for E. coli) and PBS were employed. Final concentration of S. aureus and E. coli cells injected was 5 × 10^5 and 5 × 10^6 CFU/larva, respectively. The assay was performed as described before and the number of alive larvae was recorded every 12 h.

[5] = test system: S. aureus (ATCC CRM 6538); test: Membrane permeability assay (SYTOX GREEN); type: cell-based
Source text: (§4) In order to test the permeability percentage of Temporin-1CEh and its analogues against S. aureus and E. coli, the SYTOX-GREEN nucleic acid stain was used in the assay indicated before. Tryptic soy broth (TSB) and Luria–Bertani (LB) broth were used as the media for S. aureus and E. coli, respectively.

E. coli (ATCC 8739) [6] = test: Membrane permeability assay (SYTOX GREEN); type: cell-based
Source text: as §4

[7] = Aggregation at high concentration (observation); type: physicochemical; conditions: at a high concentration
E. coli = test: Galleria mellonella larvae infection model, E. coli; type: in vivo; conditions: all tested concentrations; G. mellonella larvae, 5 × 10^6 CFU/larva
Procedure: as §3

[8] = test system: S. aureus (ATCC CRM 6538) biofilm; type: cell-based
Procedure: (§5) The anti-biofilm activities were tested on S. aureus and E. coli, as indicated previously. For the positive and negative control, 20 mg/mL of vancomycin and 1% DMSO were applied, respectively, in both assays. In addition, 0.1% Crystal Violet was used as the biofilm colouring agent.

[9] = test system: E. coli (ATCC 8739) biofilm; type: cell-based
Procedure: as §5

[10] = test system: erythrocytes from defibrinated horse blood; test: Haemolysis assay; conditions: at 256 μM; horse erythrocytes
Source text: The erythrocytes from defibrinated horse blood (TCS Biosciences Ltd., Buckingham, UK) were used to perform the haemolysis assay, as described previously [27]. Equal volumes of PBS and 2% (v/v) of the non-ionic detergent, Triton X-100 (Sigma–Aldrich, St. Louis, MO, USA) in PBS solution, were used as negative and positive controls, respectively. HC50 was defined as the mean peptide concentration producing 50% haemolysis.

[11] = test system: S. aureus (ATCC CRM 6538); conditions: MIC of Temporin-1CEa ref 29; cited from earlier work
Source text: (§6) Table 2 The MICs and MBCs of Temporin-1CEh and its analogues as well as Temporin-1CEa against the S. aureus (ATCC CRM 6538), MRSA (NCTC 12493), E. faecalis (NCTC 12697), E. coli (ATCC 8739), P. aeruginosa (ATCC 27853) and K. pneumonia (ATCC 43816), as well as the MICs of Temporin-1CEa against S. aureus and E. coli. | column: MIC/MBC (μM) / Temporin-1CEa

E. coli (ATCC 8739) [12] = conditions: MIC of Temporin-1CEa ref 29; cited from earlier work
Source text: as §6

[13] = test system: erythrocytes from defibrinated horse blood; conditions: cited from earlier work
Procedure: The calculated HC50 of Temporin-1CEh was 152.6 μM compared to that of Temporin-1CEa which was 160 μM [29]. Several modified strategies were used to optimise their antibacterial activity.

CC[C@H](C)[C@H](NC(=O)[C@H](CCCCNC(=O)[C@H](CCCCN)NC(=O)[C@H](Cc1c[nH]c2ccccc12)NC(=O)[C@@H]1CCCN1C(=O)[C@@H](NC(=O)[C@H](Cc1c[nH]c2ccccc12)NC(=O)[C@H](CCCCN)NC(=O)[C@@H](N)CCCCN)C(C)C)NC(=O)[C@H](CCCCN)NC(=O)[C@H](Cc1c[nH]c2ccccc12)NC(=O)[C@@H]1CCCN1C(=O)[C@@H](NC(=O)[C@H](Cc1c[nH]c2ccccc12)NC(=O)[C@H](CCCCN)NC(=O)[C@@H](N)CCCCN)C(C)C)C(=O)N[C@@H](C)C(=O)N[C@@H](CC(N)=O)C(=O)N[C@H](C(=O)N[C@@H](CC(C)C)C(N)=O)[C@@H](C)CC [Peptide T1CEh-KKPWW2] (I: H-KKWVPWKKIANIL-NH2 / II: H-KKWVPWK; amide I:8-II:C; N-terminus assumed)
MBC ([1]; ATCC CRM 6538): 8 µM (≈ 20.6 µg/mL)
MIC ([1]; ATCC CRM 6538): 4 µM (≈ 10.3 µg/mL)
MIC ([1]; ATCC CRM 6538, pH 6): 8 µM (≈ 20.6 µg/mL)
MIC ([1]; ATCC CRM 6538, pH 7): 4 µM (≈ 10.3 µg/mL)
MIC ([1]; ATCC CRM 6538, pH 8): 2 µM (≈ 5.15 µg/mL)
MBC ([2]; ATCC 43816): 8 µM (≈ 20.6 µg/mL)
MIC ([2]; ATCC 43816): 4 µM (≈ 10.3 µg/mL)
MIC ([2]; ATCC 43816, pH 6): 8 µM (≈ 20.6 µg/mL)
MIC ([2]; ATCC 43816, pH 7): 4 µM (≈ 10.3 µg/mL)
MIC ([2]; ATCC 43816, pH 8): 4 µM (≈ 10.3 µg/mL)
decrease of MIC comparing with that of T1CEh-KKPWW (MRSA (NCTC 12493); MRSA): four-fold
MBC (MRSA (NCTC 12493); NCTC 12493): 16 µM (≈ 41.2 µg/mL)
MIC (MRSA (NCTC 12493); NCTC 12493): 8 µM (≈ 20.6 µg/mL)
MIC (MRSA (NCTC 12493); NCTC 12493, pH 6): 16 µM (≈ 41.2 µg/mL)
MIC (MRSA (NCTC 12493); NCTC 12493, pH 7): 8 µM (≈ 20.6 µg/mL)
MIC (MRSA (NCTC 12493); NCTC 12493, pH 8): 2 µM (≈ 5.15 µg/mL)
MBC (E. coli (ATCC 8739) [3]; ATCC 8739): 2 µM (≈ 5.15 µg/mL)
MIC (E. coli (ATCC 8739) [3]; ATCC 8739): 2 µM (≈ 5.15 µg/mL)
MIC (E. coli (ATCC 8739) [3]; ATCC 8739, pH 6): 2 µM (≈ 5.15 µg/mL)
MIC (E. coli (ATCC 8739) [3]; ATCC 8739, pH 7): 2 µM (≈ 5.15 µg/mL)
MIC (E. coli (ATCC 8739) [3]; ATCC 8739, pH 8): 2 µM (≈ 5.15 µg/mL)
decrease of MIC comparing with that of T1CEh-KKPWW (E. coli (ATCC 8739) [3]; E. coli): twofold
decrease of MIC comparing with that of T1CEh-KKPWW (E. faecalis (NCTC 12697); E. faecalis): four-fold
MBC (E. faecalis (NCTC 12697); NCTC 12697): 64 µM (≈ 165 µg/mL)
MIC (E. faecalis (NCTC 12697); NCTC 12697): 32 µM (≈ 82.4 µg/mL)
MIC (E. faecalis (NCTC 12697); NCTC 12697, pH 6): 128 µM (≈ 330 µg/mL)
MIC (E. faecalis (NCTC 12697); NCTC 12697, pH 7): 32 µM (≈ 82.4 µg/mL)
MIC (E. faecalis (NCTC 12697); NCTC 12697, pH 8): 64 µM (≈ 165 µg/mL)
MBC ([4]; ATCC 27853): 16 µM (≈ 41.2 µg/mL)
MIC ([4]; ATCC 27853): 8 µM (≈ 20.6 µg/mL)
MIC ([4]; ATCC 27853, pH 6): 32 µM (≈ 82.4 µg/mL)
MIC ([4]; ATCC 27853, pH 7): 8 µM (≈ 20.6 µg/mL)
MIC ([4]; ATCC 27853, pH 8): 8 µM (≈ 20.6 µg/mL)
decrease of MIC comparing with that of T1CEh-KKPWW ([4]; P. aeruginosa): twofold
mortality of S. aureus infected larvae (S. aureus): significantly reduced the mortality
permeability rates compared with that of Temporin-1CEh [5]: higher permeability rates
permeability rates compared with that of Temporin-1CEh (E. coli (ATCC 8739) [6]): higher permeability rates
aggregation [7]: aggregation can be found in T1CEh-KKPWW2 at a high concentration, achieving hydrogel
mortality of E. coli infected larvae (E. coli): reduced the mortality
MBEC [8]: > 256 µM
MBIC [8]: 32 µM
MBEC [9]: > 256 µM
MBIC [9]: 8 µM
haemolysis rate [10]: 63%

FVDLKKIANIINSIF-NH2 [Temporin-1CEa]
MIC [11]: 13.1 µM
MIC (E. coli (ATCC 8739) [12]): >100 µM
HC50 [13]: 160 µM
